Structures can show the parent of a compound that is named as a salt. Where two headings read alike, the source gives them in different places.
Key:
[1] = test system: C6 glioma; experiment: Dose response (percent survival) in C6 glioma cell cultures; assay type: cell-based, rat; conditions: C6 glioma cells, 4 days of treatment, percent survival
Excerpt: (§1) 6,7-Dimethoxy-1-[4-(4-methoxypyridin-3-yl)benzyl]-1,2,3,4-tetrahydroisoquinolinehydrochloride (EDL-291) was synthesized as described herein in the laboratory of Dr. Duane D. Miller at The University of Tennessee Health Science Center. Briefly, the primary cultures of astrocytes and cultures of C6 glioma cell lines were handled identically with respect to treatment concentrations and manipulations of cells for the screening assays. The cells were trypsinized and transferred to 96-well plates at a cell density of 10^3 cells/mm^2 in the wells. The cells were grown overnight in 100 μL of 10% FCS BME in a 37° C. incubator containing a humid, 5% CO2 atmosphere.
(§2) EDL291 was dissolved completely to make a […] stock solution and diluted to produce a series of concentrations. A 20 μL aliquot of these initial solutions was added to 180 μl of 2% FCS BME to produce the test concentration. The vehicle solution was tested as a control. […] Immediately before treatment, the 10% FCS BME was removed from the cells and replaced with the 180 μl of the treatment medium. The cultured cells (normal primary cultures of rat brain astrocytes or C6 glioma purchased from ATCC) were incubated with test compound for 4 days. The cells were fixed with 4% paraformaldehyde, stained with 0.1% Cresylecth violet stain, and quantitated. The screening data was collected as four wells for each dose per compound (screening) or concentration (dose response curve). Also, the average growth of 8 wells with no treatment was used as a negative control for each plate (100% growth). The cells for dose response curves were grown in the same media and were handled in a similar manner as in the screening assays.
(§3) The cytotoxic character of each compound was reported as the percent survival, calculated as the average A560 for treated cells divided by A560 of untreated (100% control) cells, and expressed as a percentage. Values less than 100% indicate a cytostatic or cytotoxic effect. Dose response curves and EC50 values were attained via plots of percent survival vs. concentration.

[2] = test system: normal primary cultures of rat brain astrocytes; experiment: Dose response (percent survival) in primary cultures of astrocytes; assay type: cell-based; conditions: 4 days of treatment
Excerpt: as §1, §2, §3

[3] = Rattus norvegicus, C6 glioma, 96 h
[4] = Rattus norvegicus, Astrocyte, 96 h

Compound: COc1cc2c(cc1OC)C(Cc1ccc(-c3ccncc3)cc1)N(C(=O)OC(C)(C)C)CC2 (stereo not drawn) [Compound 3, 6,7-Dimethoxy-1-(4-pyridin-4-yl-benzyl)-3,4-dihydro-1H-isoquinoline-2-carboxylic acid tert-butyl ester]
- EC50 [1, 3]: 5.92 µM
- EC50 [2, 4]: 18.4 µM

Compound: COc1cc2c(cc1OC)C(Cc1ccc(-c3ccncc3)cc1)NCC2 (stereo not drawn) [Compound 4, 6,7-Dimethoxy-1-(4-pyridin-4-ylbenzyl)-1,2,3,4-tetrahydroisoquinoline hydrochloride salt]
- EC50 [1, 3]: 17.7 µM
- EC50 [2, 4]: 74.4 µM

Compound: COc1cc2c(cc1OC)C(Cc1ccc(-c3cccnc3OC)cc1)N(C(=O)OC(C)(C)C)CC2 (stereo not drawn) [Compound 6, 6,7-Dimethoxy-1-[4-(2-methoxypyridin-3-yl)benzyl]-3,4-dihydro-1H-isoquinoline-2-carboxylic acid tert-butyl ester]
- EC50 [1, 3]: 4.3 µM
- EC50 μM Astrocyte [2]: No Effect

Compound: COc1cc2c(cc1OC)C(Cc1ccc(-c3cccnc3OC)cc1)NCC2 (stereo not drawn) [Compound 7, 6,7-Dimethoxy-1-[4-(2-methoxypyridin-3-yl)benzyl]-1,2,3,4-tetrahydroisoquinoline hydrochloride salt]
- EC50 [1, 3]: 1.75 µM
- EC50 [2, 4]: 50 to 100 µM

Compound: COc1cc2c(cc1OC)C(Cc1ccc(-c3cccnc3OC)cc1)N(C)CC2 (stereo not drawn) [Compound 8, 6,7-dimethoxy-1-[4-(2-methoxypyridin-3-yl)benzyl]-2-methyl-1,2,3,4-tetrahydro-isoquinoline]
- EC50 ([1]; listed as drawing 26): 2.2 µM
- EC50 [2, 4]: 27.3 µM

Compound: COc1cc2c(cc1OC)C(Cc1ccc(-c3cccnc3OC)cc1)N(C)CC2 (stereo not drawn) [Compound 9, 6,7-Dimethoxy-1-[4-(2-methoxypyridin-3-yl)benzyl]-2-methyl-1,2,3,4-tetrahydroisoquinolinehydrochloride]
- EC50 ([1]; listed as drawing 27): 5.5 µM
- EC50 ([2]; read-out: EC50 μM Astrocyte): 25.3 µM

Compound: COc1cc2c(cc1OC)C(Cc1ccc(-c3ccncc3OC)cc1)N(C(=O)OC(C)(C)C)CC2 (stereo not drawn) [Compound 11, 6,7-Dimethoxy-1-[4-(3-methoxypyridin-4-yl)benzyl]-3,4-dihydro-1H-isoquinoline-2-carboxylic acid tert-butyl ester]
- EC50 [1, 3]: 4.4 µM
- EC50 [2, 4]: 13.6 µM

Compound: COc1cc2c(cc1OC)C(Cc1ccc(-c3ccncc3OC)cc1)NCC2 (stereo not drawn) [Compound 12, 6,7-Dimethoxy-1-[4-(3-methoxypyridin-4-yl)benzyl]-1,2,3,4-tetrahydroisoquinoline hydrochloride salt]
- EC50 [1, 3]: 6.9 µM
- EC50 [2, 4]: 49.5 µM

Compound: COc1cc2c(cc1OC)C(Cc1ccc(-c3ccccc3NS(C)(=O)=O)cc1)N(C(=O)OC(C)(C)C)CC2 (stereo not drawn) [Compound 14, 1-(2′-Methanesulfonylaminobiphenyl-4-ylmethyl)-6,7-dimethoxy-3,4-dihydro-1H-isoquinoline-2-carboxylic acid tert-butyl ester]
- EC50 [1, 3]: 6.2 µM
- EC50 μM Astrocyte [2]: No Effect

Compound: COc1cc2c(cc1OC)C(Cc1ccc(-c3ccccc3NS(C)(=O)=O)cc1)NCC2 (stereo not drawn) [Compound 15, N-[4′-(6,7-Dimethoxy-1,2,3,4-tetrahydroisoquinolin-1-ylmethyl)-biphenyl-2-yl]-methanesulfonamide hydrochloride salt]
- EC50 [1, 3]: 8.9 µM
- EC50 [2, 4]: 50 to 100 µM

Compound: COc1cc2c(cc1OC)C(Cc1ccc(-c3ccccc3NC(C)=O)cc1)N(C(=O)OC(C)(C)C)CC2 (stereo not drawn) [Compound 17, 1-(2′-Acetylaminobiphenyl-4-ylmethyl)-6,7-dimethoxy-3,4-dihydro-1H-isoquinoline-2-carboxylic acid tert-butyl ester]
- EC50 [1, 3]: 9.2 µM
- EC50 μM Astrocyte [2]: No Effect

Compound: COc1cc2c(cc1OC)C(Cc1ccc(-c3ccccc3NC(C)=O)cc1)NCC2.Cl (stereo not drawn) [Compound 18, N-[4′-(6,7-Dimethoxy-1,2,3,4-tetrahydroisoquinolin-1-ylmethyl)biphenyl-2-yl]acetamide hydrochloride salt]
- EC50 [1, 3]: 22.4 µM
- EC50 μM Astrocyte [2]: No Effect

Compound: COc1cc2c(cc1OC)C(Cc1ccc(-c3cnccc3OC)cc1)N(C(=O)OC(C)(C)C)CC2 (stereo not drawn) [Compound 20, 6,7-Dimethoxy-1-[4-(4-methoxypyridin-3-yl)benzyl]-3,4-dihydro-1H-isoquinoline-2-carboxylic acid tert-butyl ester]
- EC50 [1, 3]: 5.9 µM
- EC50 [2, 4]: 12.2 µM

Compound: COc1cc2c(cc1OC)C(Cc1ccc(-c3cnccc3OC)cc1)N(C)CC2 (stereo not drawn) [Compound 23, 6,7-Dimethoxy-1-[4-(4-methoxypyridin-3-yl)benzyl]-2-methyl-1,2,3,4-tetrahydroisoquinoline hydrochloride]
- EC50 [1, 3]: 3.3 µM
- EC50 [2, 4]: 28.2 µM

Compound: COc1ncc(-c2ccc(CC3c4cc(OC)c(OC)cc4CCN3C(=O)OC(C)(C)C)cc2)c(OC)n1 (stereo not drawn) [Compound 25, 1-[4-(2,4-Dimethoxypyrimidin-5-yl)benzyl]-6,7-dimethoxy-3,4-dihydro-1H-isoquinoline-2-carboxylic acid tert-butyl ester]
- EC50 [1, 3]: 6.8 µM
- EC50 μM Astrocyte [2]: No Effect

Compound: COc1ncc(-c2ccc(CC3NCCc4cc(OC)c(OC)cc43)cc2)c(OC)n1 (stereo not drawn) [Compound 26, 1-[4-(2,4-Dimethoxypyrimidin-5-yl)benzyl]-6,7-dimethoxy-1,2,3,4-tetrahydroisoquinoline hydrochloride]
- EC50 [1, 3]: 9.3 µM
- EC50 [2, 4]: 34 µM

Compound: COc1cc2c(cc1OC)C(Cc1ccc(-c3cncnc3)cc1)N(C(=O)OC(C)(C)C)CC2 (stereo not drawn) [Compound 28, 6,7-Dimethoxy-1-(4-pyrimidin-5-ylbenzyl)-3,4-dihydro-1H-isoquinoline-2-carboxylic acid tert-butyl ester]
- EC50 [1, 3]: 15.2 µM
- EC50 μM Astrocyte [2]: No Effect

Compound: COc1cc2c(cc1OC)C(Cc1ccc(-c3cncnc3)cc1)NCC2.Cl (stereo not drawn) [Compound 29, 6,7-Dimethoxy-1-(4-pyrimidin-5-ylbenzyl)-1,2,3,4-tetrahydroisoquinoline hydrochloride]
- EC50 [1, 3]: 39.4 µM
- EC50 μM Astrocyte [2]: No Effect

Compound: COc1cc2c(cc1OC)C(Cc1ccc(-c3cccnc3Cl)cc1)N(C(=O)OC(C)(C)C)CC2 (stereo not drawn) [Compound 31, 1-[4-(2-Chloro-pyridin-3-yl)benzyl]-6,7-dimethoxy-3,4-dihydro-1H-isoquinoline-2-carboxylic acid tert-butyl ester]
- EC50 [1, 3]: 3.5 µM
- EC50 μM Astrocyte [2]: No Effect

Compound: COc1cc2c(cc1OC)C(Cc1ccc(-c3cccnc3Cl)cc1)NCC2 (stereo not drawn) [Compound 32, 1-[4-(2-Chloro-pyridin-3-yl)benzyl]-6,7-dimethoxy-1,2,3,4-tetrahydroisoquinoline hydrochloride]
- EC50 [1, 3]: 2.7 µM
- EC50 [2, 4]: 28.2 µM

Compound: CC(C)(C)OC(=O)N1CCc2cc3c(cc2C1Cc1ccc(-c2cnccc2Cl)cc1)OCO3 (stereo not drawn) [Compound 40, 5-[4-(4-Chloropyridin-3-yl)benzyl]-7,8-dihydro-5H-[1,3]dioxolo[4,5-g]isoquinoline-6-carboxylic acid tert-butyl ester]
- EC50 [1, 3]: 6.3 µM
- EC50 [2, 4]: 37.5 µM

Compound: Clc1ccncc1-c1ccc(CC2NCCc3cc4c(cc32)OCO4)cc1 (stereo not drawn) [Compound 42, 5-[4-(4-Chloropyridin-3-yl)benzyl]-5,6,7,8-tetrahydro-[1,3]dioxolo[4,5-g]isoquinoline dihydrochloride salt]
- EC50 [1, 3]: 2.5 µM
- EC50 [2, 4]: 81.5 µM

Compound: COc1ccncc1-c1ccc(CC2c3cc4c(cc3CCN2C(=O)OC(C)(C)C)OCO4)cc1 (stereo not drawn) [Compound 43, 5-[4-(4-methoxypyridin-3-yl)benzyl]-7,8-dihydro-5H-[1,3]dioxolo[4,5-g]isoquinoline-6-carboxylic acid tert-butyl ester]
- EC50 [1, 3]: 5.8 µM
- EC50 [2, 4]: 12.4 µM

Compound: COc1ccncc1-c1ccc(CC2NCCc3cc4c(cc32)OCO4)cc1 (stereo not drawn) [Compound 45, 5-[4-(4-methoxypyridin-3-yl)benzyl]-5,6,7,8-tetrahydro-[1,3]dioxolo[4,5-g]isoquinoline dihydrochloride salt]
- EC50 [1, 3]: 1.3 µM
- EC50 [2, 4]: 8.3 µM
